Laboratory results taken from patent US9393225B2, “Melanoma chemoprevention” (University of Pittsburgh—Of the Commonwealth System of …, priority 2012, dated 2016).
Where two headings read alike, the source gives them in different places.

How the values were obtained:
SK-MEL 31 cells [1] = conditions: 24 hours
Description: (§1) Apoptosis induction in SFN-treated SK-MEL 31 cells was assessed by (i) quantification of cytoplasmic histone associated DNA fragments, (ii) Western blot analysis for PARP cleavage and (iii) DAPI dye for nuclear morphology assay. For quantification of cytoplasmic histone-associated DNA fraction, SK-MEL 31 cells were seeded at 4×10^3 cells/well in 96-well plate and allowed to attach overnight. […] After 24 hours, the floating and attached cells were pelleted and lysed with lysis buffer supplied with the cell death detection ELISA kit, lysates were assayed for apoptosis according to the manual. SK-MEL 31 cells were seeded at 1×10^4 cells/well on a round glass coverslip in 12 well plates. Cells were then incubated for 24 hours with 0, 10, or 20 μM SFN, attached cells were fixed with 3% paraformaldehyde in PBS, permeabilized with 1% TRITON® X-100, stained with DAPI dye and inspected under a fluorescent microscope after stained with DAPI.

PARP = conditions: 20 μM SFN, from 16 to 24 hour after treatment
Description: as §1
Cell lysate was cleared by centrifugation at 16000 rpm for 15 min. Lysate proteins were resolved by SDS-PAGE gel electrophoresis and transferred onto nitrocellulose membrane. The membrane was immersed into a phosphate buffered saline (PBS) solution containing 0.2% TWEEN® 20 and 5% (w/v) non-fat dry milk, and then incubated with desired primary antibody for 1 hour at room temperature. […]

caspase-8 = conditions: 20 μM SFN
Description: (§2) RPMI 1640, penicillin/streptomycin antibiotic mixture, and fetal bovine serum were from Gibco (Grand Island, N.Y.), propidium iodide and 4′,6′-diamidino-2-phenylindole-dihydrochloride (DAPI) were from Sigma (St Louis, Mo.). LIPOFECTAMINE 2000™ and G418 were purchased from Invitrogen (Carlsbad, Calif.). RNaseA was purchased from Promega (Madison, Wis.), and the reagents for electrophoresis were from Bio-Rad (Hercules, Calif.). Antibodies for Bcl-XL, Bak and cytochrome c were purchased from Santa Cruz Biotechnology (Santa Cruz, Calif.), antibodies specific for Bax, Smac/DIABLO, cleaved caspase-3 and cleaved caspase-8, cleaved caspase-9, cIAP1 and poly (ADP-ribose) polymerase (PARP) were purchased from Cell Signaling Technology (Beverly, Mass.), anti Bcl-2 antibody was purchased from Dakocytomation (Denmark), anti XIAP (X-linked inhibitor of apoptosis) antibody was purchased from BD PharMingen (San Diego, Calif.). Anti actin antibody was purchased from Oncogene Research Products (Boston, Mass.). The caspase inhibitors z-VAD fmk (general caspase inhibitor), z-IETD fmk (caspase-8 specific inhibitor) and z-LEHD fmk (caspase-9 specific inhibitor) were purchased from MP Biochemicals (Aurora, Ohio). The caspase-8 and caspase-9 colorimetric assay kits were purchased from R&D systems (Minneapolis, Minn.). Cytoplasmic histone associated DNA fragments detection ELISA kit was purchased from Roche Diagnostics GmbH (Mannheim, Germany). ProteoExtract™ Subcellular Proteome Extraction kit was purchased from Calbiochem (San Diego, Calif.).
(§3) Caspases are aspartate-specific cysteine proteases that play critical roles in apoptosis. Activation of caspases results in cleavage and inactivation of key cellular proteins, including the DNA repair enzyme PARP.

caspase-9 = conditions: 20 μM SFN, 24 hours
Description: as §2, §3

SK-MEL37 = conditions: different concentrations of SFN for 24, 48, or 72 h, FIG. 1
SK-MEL 31 cells [2] = conditions: 20 μM SFN, 24 hours, p<0.05
SK-MEL 31 cells [3] = assay: Trypan blue dye exclusion assay (cell proliferation / viability); conditions: for number of viable cells compared with control: 24 hour
[4] = system: Cyclin B1, Cdk1, and Cdc25; conditions: SK-MEL31 cells, 20 μM SFN; FIG. 2
Description: The blots were stripped and re-probed with anti-actin antibody to normalize for differences in protein loading.

STAT3 = conditions: administered orally to SCID mice; FIG. 3
[5] = mice, at the doses used
Description: (§4) Female athymic mice (6-week-old) were purchased from Taconic (Germantown, N.Y.). SK-MEL 31 cells were suspended in pharmacological grade normal saline, and 0.1 ml suspension containing 5×10^6 cells was injected subcutaneously on right flank of each mouse. Mice were randomized into two groups of 10 mice per group. Experimental animals were gavaged with SFN (5.6 μmol SFN in 0.1 ml normal saline) three times per week (Monday, Wednesday and Friday) beginning two weeks before tumor implantation. Control mice received an equal volume of the vehicle. Tumor volume was determined based on measurement of the length and width of the tumor, […]. Statistical significance of difference in tumor volume was assessed by Student's t-test. Upon the termination of the experiment, the tumor tissues were harvested and processed for analysis of apoptotic bodies by immunohistochemistry method. Tumor tissues were embedded in paraffin, sectioned (6 μm), de-paraffinized and processed for determination of apoptotic bodies using APOTAG® Plus Peroxidase In Situ Apoptosis detection kit (Intergen, NY) according to the manufacturer's instructions. Brown color apoptotic bodies in tumor sections of control and SFN-treated group were counted by two pathologists independently and blindly under a microscope at 400× magnification. Four randomly selected fields on each tumor section were counted for apoptotic bodies.

SK-MEL 31 xenografts = system: SK-MEL 31 xenografts
Description: as §4

cIAP1 and XIAP = conditions: SFN treatment, with time increasing
Description: (§5) Cell lysate was cleared by centrifugation at 16000 rpm for 15 min. Lysate proteins were resolved by SDS-PAGE gel electrophoresis and transferred onto nitrocellulose membrane. The membrane was immersed into a phosphate buffered saline (PBS) solution containing 0.2% TWEEN® 20 and 5% (w/v) non-fat dry milk, and then incubated with desired primary antibody for 1 hour at room temperature. After incubation with appropriate secondary antibody, the immunoreactive bands were visualized using enhanced chemiluminescence method. The conjugated horseradish peroxidase (HRP) secondary antibody was deactivated with sodium azide, then membranes were re-probed with anti-actin antibody to standardize protein loading. For cytochrome c and Smac/DIABLO, the cytosolic fractions were prepared with the PROTEOEXTRACT™ Subcellular Proteome Extraction kit according to the manufacturer's instructions and Western blot analysis were performed as described above.

Bcl-2 = conditions: 20 μM SFN, all time points
Description: as §5

Smac and cytochrome c = conditions: SFN incubation; significant increases after 8 hours
Description: as §5

Bcl-XL = conditions: 20 μM SFN, evident from the 2 hour time point
Description: as §5

[6] = system: procaspase-9, procaspase-8 and procaspase-3; conditions: 20 μM SFN, 24 hour time point
Description: as §5

Bax and Bak = conditions: 20 μM SFN
Description: as §5

SMILES: C[S+]([O-])CCCCN=C=S (centres unmarked) [SFN, 1-isothiocyanato-4-(methylsulfinyl)-butane]
- increase in cytoplasmic histone associated DNA fragments compared with DMSO treated control (SK-MEL 31 cells [1]; 5 μM SFN): ~4.7 fold
- increase in cytoplasmic histone associated DNA fragments compared with DMSO treated control (SK-MEL 31 cells [1]; 10 μM SFN): ~11.4 fold
- condensed nucleus ratio (SK-MEL 31 cells [1]; SFN 10 or 20 μM, FIG. 5C): increased significantly
- PARP cleavage (PARP): obvious increase of PARP cleavage
- caspase-8 activity increase compared with the control group (caspase-8; 16 hour): 45%
- caspase-8 activity increase compared with the control group (caspase-8; 24 hour): 73%
- increase in caspase-9 activity (caspase-9): 148%
- melanoma cell growth in vitro (cell viability) (SK-MEL37): inhibits melanoma cell growth in vitro
- cell cycle distribution (SK-MEL 31 cells [2]): significantly increase of Sub-G0/G1 and G2M phase and decreased G0/G1 phase cell number
- number of viable cells compared with control (SK-MEL 31 cells [3]; 10 μM SFN): 58%
- number of viable cells compared to control (SK-MEL 31 cells [3]; 10 μM SFN, 48 hour): 27%
- number of viable cells compared to control (SK-MEL 31 cells [3]; 10 μM SFN, 72 hour): 19%
- number of viable cells compared with control (SK-MEL 31 cells [3]; 20 μM SFN): 46%
- number of viable cells compared to control (SK-MEL 31 cells [3]; 20 μM SFN, 48 hour): 23%
- number of viable cells compared to control (SK-MEL 31 cells [3]; 20 μM SFN, 72 hour): 13%
- number of viable cells compared with control (SK-MEL 31 cells [3]; 40 μM SFN): 26%
- number of viable cells compared to control (SK-MEL 31 cells [3]; 40 μM SFN, 48 hour): 10%
- number of viable cells compared to control (SK-MEL 31 cells [3]; 40 μM SFN, 72 hour): 10%
- melanoma cell growth in vitro (cell viability) (SK-MEL 31 cells [3]; SK-MEL31, different concentrations of SFN for 24, 48, or 72 h, FIG. 1): inhibits melanoma cell growth in vitro
- melanoma cell Cyclin B1, Cdk1, and Cdc25 [4]: inhibits
- STAT3 expression in human melanoma cells transplanted into mice (STAT3): lowered STAT3 expression
- side effect (weight loss, organ weight difference) [5]: No side effect was observed
- reduction in tumor volume (SK-MEL 31 xenografts; 16 days after tumor implantation, versus control, p<0.01): 50%
- average tumor volume (SK-MEL 31 xenografts; 16 days after tumor implantation, gavage 5.6 μmol SFN three times per week): 154.4±95.4 mm^3
- tumor wet weight (SK-MEL 31 xenografts; oral SFN versus control, p<0.01): significant decrease
- count of apoptotic bodies in tumor sections versus controls (TUNEL assay) (SK-MEL 31 xenografts; oral SFN, p<0.05): ~4.4 fold
- cIAP1 and XIAP level (cIAP1 and XIAP): consecutive cIAP1 and XIAP level decreases
- Bcl-2 protein level (Bcl-2): No marked change
- cytosolic levels of Smac and cytochrome c (Smac and cytochrome c): time-dependent increases
- Bcl-XL protein level (Bcl-XL): down-regulation
- cleavage of procaspase-9, procaspase-8 and procaspase-3 [6]: resulted in cleavage
- Bax and Bak protein level (Bax and Bak): no significant level changes
